Key:
Assay type in all cases: cell-based
[1] = test system: cell-surface Fas on drug sensitive L1210 cells; assay: cell-surface Fas expression on L1210 cells by flow cytometry
Experimental: (§1) Flow Cytometry. Cells were harvested, counted, and resuspended at 10^6 cells/100 μl of PBS containing 2.5% fetal calf serum in preparation for flow cytometric analysis. Cells were stained for intracellular H202 using 6-carboxy-2′,7′-dichlorodihydrofluorescein diacetate (DCF-DA, Molecular Probes, Eugene, Oreg.). Briefly, cells were incubated at 37° with 1 mM DCF-DA for 20 minutes, washed twice in PBS containing 2.5% fetal calf serum and analyzed flow cytometrically. Mitochondrial membrane potential was assessed using Mitotracker Red (CM-H2XROS, Molecular Probes, Eugene, Oreg.). […] The cells were incubated at 37° for 20 minutes, washed twice in PBS containing 2.5% fetal calf serum and analyzed flow cytometrically. Data were acquired on a Coulter Elite Epics or Excel flow cytometer (Coulter, Hialeah, Fla.) and analyzed with CellQuest software, (Becton Dickinson, San Jose, Calif.). […] Each sample population was classified for cell size (forward scatter) and complexity (side scatter), gated on a population of interest and evaluated using 5,000 cells. […]
Drug sensitive L1210 cells and drug resistant L1210/DDP cells were cultured with etomoxir for 24 hours (Tx indicates treatment with etomoxir). The level of cell-surface Fas was determined using fluorochrome conjugated anti-Fas antibodies and flow cytometry. The Fas levels are measured relative to a control for staining artifacts. […]

L1210 cells = assay: DCFDA staining (reactive intermediates) of L1210 cells; conditions: 24 hours of incubation, FIG. 12A
Experimental: as §1
We measured the effects of etomoxir on metabolism by measuring mitochondrial membrane potential with a fluorescent dye (Mitotracker Red, Molecular Probes, Eugene, Oreg.) which fluoresces as a function of mitochondrial potential. […]

B16F1 melanoma cells = assay: mitochondrial membrane potential (Mitotracker Red) of B16F1 melanoma cells; conditions: 48 hours, FIG. 20
Experimental: Metabolic Activity Assay. Cells were prepared as previously described. The specific metabolic dye was added and mixed into the cell suspension. This plate was then placed into the 37° incubator for a 20-minute incubation. After incubation, the cells were centrifuged at 300×g for 5 minutes, and the supernatant was removed. The cells were then washed once with PBS/2.5% FBS and transferred into flow cytometric tubes containing 500 μL of PBS/2.5% FBS for analysis
MitoTracker Red CM-H2XROS (Molecular Probes). One vial of MitoTracker Red provides 10 tests and contains 50 μg. This is unstable and can't be stored. Therefore, when each vial was opened, 43 μL of Dimethysulfoxide (DMSO) were added. […]
Geometric Mean Fluorescence. […] Once the stained sample was plotted against the control (isotype or unstained), geometric mean fluorescence values were obtained for both histogram peaks. The stained control sample value was subtracted from sample to identify the actual fluorescence of the stained sample over that of the control.
B16F1 melanoma cells of Example 12 were untreated or treated with etomoxir at the indicated concentrations for 48 hours. Cells were harvested, stained with Mitotracker Red (Molecular Probes) as described in Materials and Methods, and analyzed by flow cytometry. The value of Mitotracker Red was then calculated as described in Materials and Methods. […]

[2] = test system: human leukemia HL60 cells; assay: DCFDA staining of HL60 cells; conditions: 24 hours of incubation, FIG. 14
Experimental: Flow Cytometry. Cells were harvested, counted, and resuspended at 10^6 cells/100 μl of PBS containing 2.5% fetal calf serum in preparation for flow cytometric analysis. Cells were stained for intracellular H202 using 6-carboxy-2′,7′-dichlorodihydrofluorescein diacetate (DCF-DA, Molecular Probes, Eugene, Oreg.). Briefly, cells were incubated at 37° with 1 mM DCF-DA for 20 minutes, washed twice in PBS containing 2.5% fetal calf serum and analyzed flow cytometrically. Mitochondrial membrane potential was assessed using Mitotracker Red (CM-H2XROS, Molecular Probes, Eugene, Oreg.). The cells were resuspended in PBS containing 2.5% fetal calf serum containing a final concentration of 0.5 micromolar Mitotracker dye. The cells were incubated at 37° for 20 minutes, washed twice in PBS containing 2.5% fetal calf serum and analyzed flow cytometrically. Data were acquired on a Coulter Elite Epics or Excel flow cytometer (Coulter, Hialeah, Fla.) and analyzed with CellQuest software, (Becton Dickinson, San Jose, Calif.). […] Each sample population was classified for cell size (forward scatter) and complexity (side scatter), gated on a population of interest and evaluated using 5,000 cells. […]
The effects of etomoxir on human leukemia HL60 cells was determined. […]

CCOC(=O)C1(CCCCCCOc2ccc(Cl)cc2)CO1 (centres unmarked) [etomoxir, 2-(6-(4-chlorophenoxy)-hexyl)-oxirane-2-carboxylic acid ethyl ester]
cell surface Fas ([1]; cultured with etomoxir for 24 hours, FIG. 7): significant increases
methotrexate-induced increases in Fas ([1]; etomoxir with methotrexate, FIG. 8): increases
free radicals (reactive intermediates), DCFDA staining (L1210 cells): increase
mitochondrial membrane potential as measured by Mitotracker Red (B16F1 melanoma cells): increase
reactive oxygen intermediates (DCFDA staining) [2]: increases
